Measurements: EP1824486B1, “BENZDIOXANE PIPERAZINE DERIVATIVES WITH A COMBINATION OF AFFINITY FOR DOPAMINE-D2 RECEPTORS AND SEROTONIN REUPTAKE SITES” (Solvay Pharmaceuticals B.V., priority 2004, dated 2006)

Tests used:
[1] = target: T1, serotonin reuptake sites (Rattus norvegicus, UniProt P31652); experiment: In vitro affinity for serotonin reuptake sites ([3H]-paroxetine binding assay, Habert et al.); conditions: average values from three independent experiments; read-out: in vitro affinity 5-HT reuptake binding Ki
T1 construct: from tissue; host or cells: rat cortical membranes (from the title of the cited method only)
Source text: In vitro affinity for serotonin reuptake sites

[2] = target: T2, dopamine D2 receptors (Mus musculus, UniProt P61168); experiment: Antagonism of apomorphine-induced climbing behaviour in mice (APO-climb); conditions: po, read-out: in vivo activity Dopamine-D2 APO-climb* ED50 mg/kg po
T2 construct: antagonize apomorphine-induced climbing behaviour in mice; from tissue; host or cells: living mice (in vivo behavioural model)

[3] = target: T3, serotonin reuptake (Mus musculus, UniProt Q60857); experiment: Potentiation of 5-HTP induced behaviour in mice; conditions: po, read-out: in vivo activity 5-HT reuptake 5-HTP** ED50 mg/kg po
T3 construct: they potentiate 5-HTP induced behaviour in mice; from tissue; host or cells: living mice (in vivo behavioural model)
T3 sequence (Q60857 whole entry): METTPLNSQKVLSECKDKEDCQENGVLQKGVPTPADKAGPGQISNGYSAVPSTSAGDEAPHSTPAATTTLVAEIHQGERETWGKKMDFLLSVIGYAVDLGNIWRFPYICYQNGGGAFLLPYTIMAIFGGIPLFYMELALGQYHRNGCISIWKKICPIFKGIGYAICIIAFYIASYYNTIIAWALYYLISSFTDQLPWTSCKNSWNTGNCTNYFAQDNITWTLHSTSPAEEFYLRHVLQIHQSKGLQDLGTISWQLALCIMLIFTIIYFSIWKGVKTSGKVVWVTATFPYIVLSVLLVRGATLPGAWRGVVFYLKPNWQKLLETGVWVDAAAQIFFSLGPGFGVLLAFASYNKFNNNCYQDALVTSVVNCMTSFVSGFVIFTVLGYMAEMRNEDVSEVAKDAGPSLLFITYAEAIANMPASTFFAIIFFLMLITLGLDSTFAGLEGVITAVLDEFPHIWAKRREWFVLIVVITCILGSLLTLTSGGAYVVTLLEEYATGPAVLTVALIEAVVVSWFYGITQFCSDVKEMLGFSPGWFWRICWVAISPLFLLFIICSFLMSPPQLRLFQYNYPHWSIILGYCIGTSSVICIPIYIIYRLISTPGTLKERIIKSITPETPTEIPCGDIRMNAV

T1 sequence (P31652 whole entry): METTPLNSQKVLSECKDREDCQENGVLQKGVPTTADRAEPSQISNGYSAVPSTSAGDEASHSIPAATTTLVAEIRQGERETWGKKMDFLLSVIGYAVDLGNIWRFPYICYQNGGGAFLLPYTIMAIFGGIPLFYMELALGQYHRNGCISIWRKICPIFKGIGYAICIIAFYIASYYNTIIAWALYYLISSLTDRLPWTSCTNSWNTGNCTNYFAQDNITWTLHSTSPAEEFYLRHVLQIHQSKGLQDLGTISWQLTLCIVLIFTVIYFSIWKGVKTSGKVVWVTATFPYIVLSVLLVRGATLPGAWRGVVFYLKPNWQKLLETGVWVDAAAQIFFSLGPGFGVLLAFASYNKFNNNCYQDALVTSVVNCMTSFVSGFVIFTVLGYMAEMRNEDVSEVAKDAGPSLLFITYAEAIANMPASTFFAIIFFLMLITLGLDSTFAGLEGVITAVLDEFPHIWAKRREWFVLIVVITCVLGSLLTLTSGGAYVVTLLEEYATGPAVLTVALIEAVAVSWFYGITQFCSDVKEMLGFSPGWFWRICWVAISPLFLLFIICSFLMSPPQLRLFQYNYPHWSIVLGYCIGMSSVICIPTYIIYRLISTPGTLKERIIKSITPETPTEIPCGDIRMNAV
T2 sequence (P61168 whole entry): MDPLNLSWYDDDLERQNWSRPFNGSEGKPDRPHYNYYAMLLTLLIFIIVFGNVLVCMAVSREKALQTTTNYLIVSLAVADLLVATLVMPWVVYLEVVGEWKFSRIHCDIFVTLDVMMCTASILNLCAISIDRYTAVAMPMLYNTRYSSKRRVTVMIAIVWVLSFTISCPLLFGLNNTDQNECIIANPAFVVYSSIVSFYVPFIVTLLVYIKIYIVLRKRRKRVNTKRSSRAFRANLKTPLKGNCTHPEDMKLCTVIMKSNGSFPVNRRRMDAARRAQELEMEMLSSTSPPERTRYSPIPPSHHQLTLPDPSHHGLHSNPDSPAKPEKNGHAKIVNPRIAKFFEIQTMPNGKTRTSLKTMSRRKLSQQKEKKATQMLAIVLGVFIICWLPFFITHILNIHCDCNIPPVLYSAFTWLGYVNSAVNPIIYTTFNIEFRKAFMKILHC

| SMILES | Ki [1] | ED50 [2] | ED50 [3] |
| --- | --- | --- | --- |
| Clc1cccc2c(CCCN3CCN(c4cccc5c4OCCO5)CC3)c[nH]c12 [5l, 3-{3-[4-(2,3-Dihydro-benzo[1,4]dioxin-5-yl)-piperazin-1-yl]-propyl}-7-chloro-1H-indole] | 7.9 ± 2.8 nM | – | – |
| c1cc2c(c(N3CCN(Cc4c[nH]c5ccccc45)CC3)c1)OCCO2 [compound 5a, 3-[4-(2,3-Dihydro-benzo[1,4]dioxin-5-yl)-piperazin-1-yl-methyl]-1H-indole] | 176 ± 59 nM | – | – |
| c1cc2c(c(N3CCN(CCCc4c[nH]c5ccccc45)CC3)c1)OCCO2 [compound 5b, 3-{3-[4-(2,3-Dihydro-benzo[1,4]dioxin-5-yl)-piperazin-1-yl]-propyl}-1H-indole] | 0.4 ± 0.1 nM | 10 mg/kg | 22 mg/kg |
| c1cc2c(c(N3CCN(CCCCCc4c[nH]c5ccccc45)CC3)c1)OCCO2 [compound 5c, 3-{5-[4-(2,3-Dihydro-benzo[1,4]dioxin-5-yl)-piperazin-1-yl]-pentyl}-1H-indole] | 37 ± 3 nM | – | – |
| Fc1cccc2[nH]cc(CCCN3CCN(c4cccc5c4OCCO5)CC3)c12 [compound 5d, 3-{3-[4-(2,3-Dihydro-benzo[1,4]dioxin-5-yl)-piperazin-1-yl]-propyl}-4-fluoro-1H-indole] | 0.4 ± 0.1 nM | 13 mg/kg | 32 mg/kg |
| Fc1ccc2[nH]cc(CCCN3CCN(c4cccc5c4OCCO5)CC3)c2c1 [compound 5e, 3-{3-[4-(2,3-Dihydro-benzo[1,4]dioxin-5-yl)-piperazin-1-yl]-propyl}-5-fluoro-1H-indole] | 0.3 ± 0.1 nM | – | 2 mg/kg |
| Fc1ccc2c(CCCN3CCN(c4cccc5c4OCCO5)CC3)c[nH]c2c1 [compound 5f, 3-{3-[4-(2,3-Dihydro-benzo[1,4]dioxin-5-yl)-piperazin-1-yl]-propyl}-6-fluoro-1H-indole] | 1.6 ± 0.2 nM | 9 mg/kg | – |
| Fc1cccc2c(CCCN3CCN(c4cccc5c4OCCO5)CC3)c[nH]c12 [compound 5g, 3-{3-[4-(2,3-Dihydro-benzo[1,4]dioxin-5-yl)-piperazin-1yl]-propyl}-7-fluoro-1H-indole] | 0.6 ± 0.1 nM | – | 28.4 mg/kg |
| COc1ccc2[nH]cc(CCCN3CCN(c4cccc5c4OCCO5)CC3)c2c1 [compound 5h, 3-{3-[4-(2,3-Dihydro-benzo[1,4]dioxin-5-yl)-piperazin-1-yl]-propyl}-5-methoxy-1H-indole] | 14 ± 4 nM | – | – |
| Clc1cccc2[nH]cc(CCCN3CCN(c4cccc5c4OCCO5)CC3)c12 [compound 5i, 3-{3-[4-(2,3-Dihydro-benzo[1,4]dioxin-5-yl)-piperazin-1-yl]-propyl}-4-chloro-1H-indole] | 1.4 ± 0.4 nM | – | – |
| Clc1ccc2c(CCCN3CCN(c4cccc5c4OCCO5)CC3)c[nH]c2c1 [compound 5k, 3-{3-[4-(2,3-Dihydro-benzo[1,4]dioxin-5-yl)-piperazin-1-yl]-propyl}-6-chloro-1H-indole] | 2 ± 0.7 nM | 4.5 mg/kg | 86 mg/kg |
| Cc1cccc2c(CCCN3CCN(c4cccc5c4OCCO5)CC3)c[nH]c12 [compound 5n, 3-{3-[4-(2,3-Dihydro-benzo[1,4]dioxin-5-yl)-piperazin-1-yl]-propyl}-7-methyl-1H-indole] | 12 ± 5 nM | – | – |
| c1cc2c(c(N3CCN(CCCc4c[nH]c5ccccc45)CC3)c1)CCCO2 [compound 14, 3-[3-(4-chroman-5-yl-piperazine-1-yl)-propyl]-1H-indole] | 1.1 ± 0.3 nM | – | – |
